What all share (type): cell-based, human
For assay [1], the system named is Poly(GP). As to the kind of experiment: Poly(GP) by electrochemiluminescent immunoassay in patient-derived LCLs. The procedure:
(§1) Measuring Poly(GP) Levels by Electrochemiluminescence. LCLs were seeded in T-25 flash at 400,000 cells/mL in 5 mL of growth medium. After overnight incubation, the cells were treated with compound or ASO for 4 days at 37° C. After the treatment period, the cells were pelleted, and total protein was extracted by incubating with CoIP2 Buffer (50 mM Tris-HCL, pH 7.4, 300 mM NaCl, 5 mM EDTA, 1% (v/v) Triton-X 100, 2% (w/v) sodium dodecyl sulfate, and 0.01% (v/v) protease and phosphatase inhibitors) on ice for 5 min and then sonication (3 s intervals at 35% power for ˜40 s). Detergent was then removed using Pierce™ Detergent Removal Spin Columns following manufacturer's protocol. Protein concentration was measured by Pierce™ BCA Protein Assay Kit.
(§2) Levels of poly(GP) were measured using Meso Scale Discovery MSD Gold 96-well Streptavidin SECTOR plates. Both capture and detection antibodies were generated using an anti-poly(GP) antibody kindly provided by the Target ALS Foundation. To serve as the capture antibody, the poly(GP) antibody was conjugated to biotin using EZ-Link™ Sulfo-NHS-LC-Biotin (Thermo Fisher) as per the manufacturer's protocol. To serve as the detection antibody, the poly(GP) antibody was sulfo-tagged using MSD GOLD SULFO-TAG NHS-Ester (Meso Scale Discovery) as per the manufacturer's protocol. The conjugated antibodies were desalted with 40K Zeba™ Spin Desalting Columns (Thermo Fisher Scientific), and their concentrations were determined by Pierce™ BCA Protein Assay Kit.
Briefly, the plates were incubated with 2 μg/ml of anti-poly(GP)-biotin antibody at 4° C. overnight. The wells were then washed three times with 1×TBST [1×Tris-buffered saline (TBS) containing 0.1% (v/v) Tween-20] and blocked with 3% BSA in 1×TBST for 1 h at room temperature (with shaking). The blocking solution was removed, and the wells were washed 3 times with 150 μL of 1×TBST. […] After washing with 150 μL of 1×TBST three times, 1×MSD GOLD Read Buffer was added to each well, and electrochemiluminescence was measured using a SECTOR Imager (MSD). […]

Assay [2] has as its system Poly(GP). Description: Poly(GP) by immunoassay in patient-derived iPSCs. As to conditions: for Poly(GP) levels: iPSCs from c9ALS patients. The procedure:
iPSCs were treated for 4 days in Matrigel (356234, Corning) coated plates with mTeSR™1 feeder-free medium ([…] Technologies; Catalog #85850). Cells were treated in 6-well plates on day 1 and 3 with compounds diluted in 0.1% final DMSO.
as §1, §2
Briefly, the plates were incubated with 2 μg/ml of anti-poly(GP)-biotin antibody at 4° C. overnight. […] After washing with 150 μL of 1×TBST three times, 1×MSD GOLD Read Buffer was added to each well, and electrochemiluminescence was measured using a SECTOR Imager (MSD). […]

Assay [3] has as its system Poly(GP). Description: poly(GP) in c9ALS iPSC-derived spinal neurons. How it is done: iPSCs were differentiated into spinal neuron cells using a previously the previously described direct induced motor neuron (diMNs) differentiation protocol (58) with modifications. Briefly, iPSCs were plated into Matrigel-coated 100 mm dishes (30-40% confluence). Neuroepithelial induction was performed by replacing the iPSC maintenance medium with Stage 1 medium [47.5% IMDM (Iscove's Modified Dulbecco's Medium) medium, 47.5% F12 medium, 1% NEAA (Non-Essential Amino Acid) (Life Technologies), 2% B27 (Invitrogen), 1% N2, 1% PSA (Penicillin-Streptomycin-Amphotericin), 0.2 μM LDN193189 (Stemgent), 10 μM SB431542 ([…] Technologies) and 3 μM CHIR99021 (Sigma-Aldrich)]. After daily medium changes for 6 days, cells were detached with Accutase and seeded into 6-well plates (1.5×10^6 cells/well) in 3 mL Stage 2 medium. […]
Measuring Poly(GP) Levels by Electrochemiluminescence. […] Protein concentration was measured by Pierce™ BCA Protein Assay Kit.
Levels of poly(GP) were measured using Meso Scale Discovery MSD Gold 96-well Streptavidin SECTOR plates. […] The conjugated antibodies were desalted with 40K Zeba™ Spin Desalting Columns (Thermo Fisher Scientific), and their concentrations were determined by Pierce™ BCA Protein Assay Kit. […]

Entries after “also recorded” stand apart in the source; their conditions may differ.

Turning to `Cc1c2ccncc2c(C)c2c1[nH]c1ccc(OCCOCCOCCNCCOCCOCCOc3ccc4[nH]c5c(C)c6ccncc6c(C)c5c4c3)cc12` [Compound 3], in the assay with Poly(GP) [1] (5, 50 and 500 nM for 4 days), the “Poly(GP) expression” value is “dose-dependent decrease”. Moreover, the “Poly(GP) levels” value with Poly(GP) [2] is listed as “reduced Poly(GP) levels dose-dependently”.
For `CCOC(=O)C1=C(Nc2ccccc2)S/C(=C\c2ccc(OCCOCCOCCOCCNC(=O)CCC(=O)N(CCOCCOCCOc3ccc4[nH]c5c(C)c6ccncc6c(C)c5c4c3)CCOCCOCCOc3ccc4[nH]c5c(C)c6ccncc6c(C)c5c4c3)c(O)c2)C1=O` [Compound 7], the “reduction of Poly(GP) levels” value with Poly(GP) [1] (500 nM) came to 71±11%. Also, in the assay with Poly(GP) [1] (Poly(GP) in LCLs), the “increase in potency over parent compound 3” value came out at 5 fold. Besides, in the assay on Poly(GP) [2], the “potency and duration of activity for reducing Poly(GP) abundance compared to parent compound 3” value is “significant increase in potency and a prolonged period of activity; also recorded: significant (P<0.05) increase in potency and a prolonged duration of activity”; the “Poly(GP) levels” value is recorded as “significant reduction”. Also, the “abundance of poly(GP)” value in the assay with Poly(GP) [3] is on record as “significant (P<0.05) reduction”.

For the origin of these results see patent US20230381170A1, “METHOD FOR TREATING ALS/FTD THROUGH DEGRADATION OF RNA REPEAT EXPANSION” (University of Florida Research Foundation, Incorporated, priority 2020, published 2023).
